IC50 and Ki data for 13 molecules are collected here from patent publication US12528812B2 (Genentech, Inc., priority 2020, dated 2026).

Assay [1] has as its system EPO-stimulated P-STAT5 in TF-1 human erythroleukemia cells. Put plainly: P-STAT5 TF-1 + EPO assay (JAK2 pathway). Conditions: Homo sapiens, TF-1, TF-1 cells, EPO stimulation; read-out: Cellular JAK2 PSTAT5 TF-1 + EPO. Type of assay: cell-based. The procedure: (§1) TF-1 human erythroleukemia cells (ATCC′; Manassas, VA; Catalog No. CRL-2003™) were grown in Roswell Park Memorial Institute (RPMI) medium supplemented with 10% heat-inactivated fetal bovine serum (FBS), 2 ng/mL granulocyte-macrophage colony-stimulating factor, 1× non-essential amino acids (NEAA), and 1 mM sodium pyruvate. The day before the assay, the cultures were transferred to Opti-MEM™, 1×NEAA, 1 mM sodium pyruvate, and 0.5% charcoal-stripped FBS (starve medium). Inhibitor stock solutions (5 mM in DMSO) were serially diluted 1:2 in DMSO to generate a 10-point concentration titration (at 500× test concentration), which was further diluted by a 50-fold dilution in Assay Medium (RPMI containing 1×NEAA and 1 mM sodium pyruvate) to generate a 10× concentration titration (in 2% DMSO). The cells (300,000 cells/well in 35 μL of Assay Medium) were seeded in 384-well Greiner plates. Diluted inhibitor at 10× concentration (5 μL) was added to the cells and the plates were incubated for 30 minutes at 37° C. in a humidified incubator. Cells were stimulated with the human recombinant cytokine at the respective EC90 concentrations, as previously determined for each individual lot. For the phosphorylated signal transducer and activator of transcription 6 (P-STAT6) TF-1+Interleukin-13 (IL-13) assay, 10 μL of 250 ng/mL IL-13 (R&D Systems; Minneapolis, MN) was added to the cells, which were then incubated for 10 minutes at 37° C. For the P-STAT5 TF-1+Erythropoietin (EPO) assay, 10 μL of 110 IU/mL EPO (Gibco Life Technologies, Catalog No. PHC2054) was added to the cells, which were then incubated for […] at 37° C. For both assays, the incubation was followed by addition to the cells of 5 μL of ice-cold 10× cell lysis buffer (Cell Signaling Technologies; Danvers, MA; Catalog No. 9803S) containing 1 mM phenylmethylsulfonyl fluoride (PMSF). Assay plates were frozen at −80° C. for a minimum of 1 hour. In the IL-13 assay, P-STAT6 was measured by coating goat anti-rabbit (GAR) plates (Meso Scale Discovery [MSD]; Rockville, MD; Catalog No. MSD L21RA-1) with rabbit anti-human total STAT6 antibody (Cell Signaling Technologies; Catalog No. 9362S), incubating the cell lysates in the coated plates overnight at 4° C., and then detecting with mouse anti-P-STAT6 (Tyr641) Clone 16E12 antibody (MilliporeSigma; Burlington, MA; Catalog No. 05-590, custom labeled by MSD with SULFO-tag) using standard MSD plate processing, washing, and detection protocols. In the EPO assay, P-STAT5 was detected using the phospho-STAT5a,b Whole Cell Lysate Kit (MSD; Catalog No. K150IGD-1). The electrochemiluminescence (ECL) signal of wells was read on the MESO SECTOR 5600 (MSD) reader.
(§2) Data analysis was performed by subtracting the negative control (cytokine stimulated and 20 μM control inhibitor-treated cells) mean ECL value from the ECL value of all wells, determining percent of control for test compound well ECL values relative to the positive control (cytokine stimulated and DMSO-treated cells) mean ECL value, and determining the IC50 for test compounds with a four-parameter logistic fit model as shown in Equation 4.

Assay [2] has as its target T1, recombinant human JAK1 kinase domain protein (Residues 854-1154) (Homo sapiens, UniProt P23458).
T1 construct: human JAK1 kinase domain protein (Residues 854-1154); purchased Proteros Biostructures GmbH (Martinsried, Germany); host or cells: insect cells
Put plainly: JAK1 biochemical assay (LabChip mobility shift, Ki). To be noted: read-out: Biochem JAK1 Ki.

For assay [3], the system named is IL-13-stimulated STAT6 phosphorylation in human lung bronchial epithelial BEAS-2B cell line. Put plainly: P-STAT6 BEAS-2B + IL-13 cell assay. It is filed as cell-based. To be noted: BEAS2B cells, IL13 stimulation, read-out: Cellular JAK1 PSTAT6 BEAS2B + IL13. The procedure, abridged:
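BEAS-2B cells grown 48 h at 37 °C, pre-treated 1 h with compound (10-point 1:2 dilution curve), then stimulated 15 min with human recombinant IL-13 (250 ng/mL stock). Lysate P-STAT6 (Tyr641) read by MSD sandwich ELISA with total-STAT6 capture; IC50 from four-parameter logistic fit of control-normalised data.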

Assay [4] deals with IL-13-stimulated P-STAT6 in TF-1 human erythroleukemia cells. The assay can be described thus: P-STAT6 TF-1 + IL-13 assay (JAK1 pathway). Type of assay: cell-based. Conditions: Homo sapiens, TF-1, TF-1 cells, IL13 stimulation; read-out: Cellular JAK1 PSTAT6 TF-1 + IL13. Here is the method:
as §1, §2

The target of assay [5] is Recombinant human JAK2 kinase domain protein (Residues 812-1132) (Homo sapiens, UniProt O60674). Put plainly: JAK2 biochemical assay (LabChip mobility shift, Ki). To be noted: Biochem JAK2 Ki.

Where two headings read alike, the source gives them in different places.

T1 sequence (P23458 854-1154): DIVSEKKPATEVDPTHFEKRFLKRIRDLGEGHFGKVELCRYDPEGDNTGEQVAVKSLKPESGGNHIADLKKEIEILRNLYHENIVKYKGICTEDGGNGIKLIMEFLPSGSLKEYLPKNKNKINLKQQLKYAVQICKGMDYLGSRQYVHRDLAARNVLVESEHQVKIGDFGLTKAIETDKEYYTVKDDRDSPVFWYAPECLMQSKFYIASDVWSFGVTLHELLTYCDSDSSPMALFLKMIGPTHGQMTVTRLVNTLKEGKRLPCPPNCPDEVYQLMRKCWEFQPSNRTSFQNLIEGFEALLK
Recombinant human JAK2 kinase domain protein (Residues 812-1132), sequence (O60674 812-1132): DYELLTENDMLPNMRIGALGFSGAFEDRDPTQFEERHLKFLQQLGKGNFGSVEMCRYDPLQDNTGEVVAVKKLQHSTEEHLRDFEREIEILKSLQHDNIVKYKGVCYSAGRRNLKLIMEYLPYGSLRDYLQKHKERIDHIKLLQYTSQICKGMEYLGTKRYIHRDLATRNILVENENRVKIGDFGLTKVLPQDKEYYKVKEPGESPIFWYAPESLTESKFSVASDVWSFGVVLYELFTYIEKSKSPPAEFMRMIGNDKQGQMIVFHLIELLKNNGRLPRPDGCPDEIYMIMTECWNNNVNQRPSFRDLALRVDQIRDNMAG

As for `CC(O)Cn1cc(Oc2ccc(OC(F)F)c(-c3nn(C)cc3NC(=O)c3cnn4cccnc34)c2)cn1` (racemic) [Example 121, N-[3-[2-(difluoromethoxy)-5-[1-[rac-(2S)-2-hydroxypropyl]pyrazol-4-yl]oxy-phenyl]-1-methyl-pyrazol-4-yl]pyrazolo[1,5-a]pyrimidine-3-carboxamide], the IC50 in assay [1] was 4.9 nM; in assay [3] (Homo sapiens, BEAS-2B), 18 nM; in assay [4], 4 nM. In addition, the Ki – broadly, a dissociation constant, usually derived from enzyme kinetics or from competition with a known ligand – worked out at 0.28 nM in assay [2] and 0.18 nM in assay [5].

For `CN1CCC(n2cc(Oc3ccc(OC(F)F)c(-c4nn(C)cc4NC(=O)c4cnn5cccnc45)c3)cn2)C1` (racemic) [Example 141, N-[3-[2-(difluoromethoxy)-5-[1-[rac-(3R)-1-methylpyrrolidin-3-yl]pyrazol-4-yl]oxy-phenyl]-1-methyl-pyrazol-4-yl]pyrazolo[1,5-a]pyrimidine-3-carboxamide], the results for the IC50 in assay [1], in assay [3] and in assay [4] were 33 nM, 46 nM and 12 nM, respectively. For the same molecule, the inhibitory constant (Ki) in assay [2] was determined as 1.6 nM; in assay [5], 1.2 nM.

Turning to `Cn1cc(NC(=O)c2cnn3cccnc23)c(-c2cc(Oc3cnn([C@@H]4CNCC[C@H]4O)c3)ccc2OC(F)F)n1` (stereo in doubt) [Example 181, N-[3-[2-(difluoromethoxy)-5-[1-[rac-(3R,4R)-4-hydroxy-3-piperidyl]pyrazol-4-yl]oxy-phenyl]-1-methyl-pyrazol-4-yl]pyrazolo[1,5-a]pyrimidine-3-carboxamide], the IC50 in assay [1] was determined as 160 nM; in assay [3] (Homo sapiens, BEAS-2B), 60 nM; in assay [4], 76 nM. Besides, the Ki in assay [2] was 0.29 nM; in assay [5], 0.23 nM.

`CN1CC[C@H](O)[C@@H](n2cc(Oc3ccc(OC(F)F)c(-c4nn(C)cc4NC(=O)c4cnn5cccnc45)c3)cn2)C1` (stereo in doubt) [Example 184, N-[3-[2-(difluoromethoxy)-5-[1-[rac-(3S,4S)-4-hydroxy-l-methyl-3-piperidyl]pyrazol-4-yl]oxy-phenyl]-1-methyl-pyrazol-4-yl]pyrazolo[1,5-a]pyrimidine-3-carboxamide]: the IC50 in assay [1] amounted to 38 nM; in assay [3] (Homo sapiens, BEAS-2B) it was 47 nM; in assay [4] it was 12 nM. Besides, the Ki in assay [2] came to 0.32 nM; in assay [5] it was 0.21 nM.

As for `Cn1cc(NC(=O)c2cnn3cccnc23)c(-c2cc(Oc3cccnc3)ccc2OC(F)F)n1` [Example 2, N-[3-[2-(difluoromethoxy)-5-(3-pyridyloxy)phenyl]-1-methyl-pyrazol-4-yl]pyrazolo[1,5-a]pyrimidine-3-carboxamide], the IC50 was 11 nM in assay [1]; 20 nM in assay [3] (Homo sapiens, BEAS-2B); 3.6 nM in assay [4]. Further, the Ki in assay [2] is 0.32 nM; in assay [5] it was 0.19 nM.

As for `Cc1ccc(Oc2ccc(OC(F)F)c(-c3nn(C)cc3NC(=O)c3cnn4cccnc34)c2)cc1C(=O)N(C)C` [Example 49, N-[3-[2-(difluoromethoxy)-5-[3-(dimethylcarbamoyl)-4-methyl-phenoxy]phenyl]-1-methyl-pyrazol-4-yl]pyrazolo[1,5-a]pyrimidine-3-carboxamide], the IC50 in assay [1] was 8.6 nM; in assay [3] (Homo sapiens, BEAS-2B), 20 nM; in assay [4] it was 5.4 nM. For the same molecule, the Ki stood at 0.44 nM in assay [2] and 0.28 nM in assay [5].

On to `Cn1cc(Oc2ccc(OC(F)F)c(-c3nn(C)cc3NC(=O)c3cnn4cccnc34)c2)cn1` [Example 59, N-[3-[2-(difluoromethoxy)-5-(1-methylpyrazol-4-yl)oxy-phenyl]-1-methyl-pyrazol-4-yl]pyrazolo[1,5-a]pyrimidine-3-carboxamide], for which the IC50 stood at 7.3 nM in assay [1]; 13 nM in assay [3] (Homo sapiens, BEAS-2B); 4.6 nM in assay [4]. Further, the Ki in assay [2] was 0.31 nM; in assay [5], 0.18 nM.

`CN1CC(O)(c2cccc(Oc3ccc(OC(F)F)c(-c4nn(C)cc4NC(=O)c4cnn5cccnc45)c3)c2)C1` [Example 79, N-[3-[2-(difluoromethoxy)-5-[3-(3-hydroxy-l-methyl-azetidin-3-yl)phenoxy]phenyl]-1-methyl-pyrazol-4-yl]pyrazolo[1,5-a]pyrimidine-3-carboxamide]: the IC50 in assay [1] was 4.8 nM; in assay [3] (Homo sapiens, BEAS-2B), 8 nM; in assay [4] it was 8.2 nM. Further, the inhibition constant (Ki) is 0.24 nM in assay [2] and 0.25 nM in assay [5].

Turning to `Cn1cc(NC(=O)c2cnn3cccnc23)c(-c2cc(Oc3cccc(C4CNCCO4)c3)ccc2OC(F)F)n1` (centres unmarked) [Example 82, N-[3-[2-(difluoromethoxy)-5-(3-morpholin-2-ylphenoxy)phenyl]-1-methyl-pyrazol-4-yl]pyrazolo[1,5-a]pyrimidine-3-carboxamide], the IC50 in assay [1] was 15 nM; in assay [3] (Homo sapiens, BEAS-2B), 51 nM; in assay [4] it was 8.4 nM. In addition, the results for the Ki in assay [2] and in assay [5] were 0.58 nM and 0.6 nM, respectively.

On to `CN1CC(O)(c2cc(F)cc(Oc3ccc(OC(F)F)c(-c4nn(C)cc4NC(=O)c4cnn5cccnc45)c3)c2)C1` [Example 96, N-[3-[2-(difluoromethoxy)-5-[3-fluoro-5-(3-hydroxy-1-methyl-azetidin-3-yl)phenoxy]phenyl]-1-methyl-pyrazol-4-yl]pyrazolo[1,5-a]pyrimidine-3-carboxamide], for which the IC50 in assay [1] came to 3 nM; in assay [3] (Homo sapiens, BEAS-2B), 13 nM; in assay [4], 5.2 nM. The inhibitory constant (Ki) in assay [2] turned out to be 0.25 nM; in assay [5], 0.26 nM.

`Cn1cc(NC(=O)c2cnn3cccnc23)c(-c2cc(Oc3cnn(CCO)c3)ccc2OC(F)F)n1` [Example 113, N-[3-[2-(difluoromethoxy)-5-[1-(2-hydroxyethyl)pyrazol-4-yl]oxy-phenyl]-1-methyl-pyrazol-4-yl]pyrazolo[1,5-a]pyrimidine-3-carboxamide]: the IC50 in assay [1] is 13 nM; in assay [3] (Homo sapiens, BEAS-2B) it was 20 nM; in assay [4] it was 7 nM. The figures for the Ki in assay [2] and in assay [5] were 0.3 nM and 0.14 nM, respectively.

Take `Cn1cc(NC(=O)c2cnn3cccnc23)c(-c2cc(Oc3cnn(C4COC4)c3)ccc2OC(F)F)n1` [Example 114, N-[3-[2-(difluoromethoxy)-5-[1-(oxetan-3-yl)pyrazol-4-yl]oxy-phenyl]-1-methyl-pyrazol-4-yl]pyrazolo[1,5-a]pyrimidine-3-carboxamide]: the IC50 in assay [1] worked out at 29 nM; in assay [3] (Homo sapiens, BEAS-2B), 29 nM; in assay [4], 6 nM. In addition, the Ki was 0.84 nM in assay [2] and 0.49 nM in assay [5].

With `CN1CC(O)(Cn2cc(Oc3ccc(OC(F)F)c(-c4nn(C)cc4NC(=O)c4cnn5cccnc45)c3)cn2)C1` [Example 128, N-[3-[2-(difluoromethoxy)-5-[1-[(3-hydroxy-l-methyl-azetidin-3-yl)methyl]pyrazol-4-yl]oxy-phenyl]-1-methyl-pyrazol-4-yl]pyrazolo[1,5-a]pyrimidine-3-carboxamide], the IC50 amounted to 52 nM in assay [1]; 30 nM in assay [3] (Homo sapiens, BEAS-2B); 51 nM in assay [4]. Besides, the Ki stood at 0.52 nM in assay [2] and 0.41 nM in assay [5].
